“Also recorded” adds a separate entry of the source.
Tested on: hematopoiesis
Assay: Carboplatin-induced myelosuppression in mice
Format: in vivo, mouse
Experimental: For xenograft models, the NSG mice and BALB/c mice were subcutaneously injected with 2×10^6 viable MDA-MB-231 cells and TUBO cells in their right hind limbs, respectively. After the tumor grew to 1 cm in diameter, mice were randomly divided into the groups for each treatment. For no treatment control, 100 μl saline with 1% mouse serum was intravenously injected through tail vein. For treatment groups, 670 pmol/20 g chimeras and/or 5(0 mg/kg 5-fluorouracil (5-FU), or 120 mg/kg carboplatin were also intravenously injected. Tumor sizes were measured in two dimensions every 3 days. Tumor volume (V) was calculated using the following formula: V=(½) S^2×L (S. the shortest dimension; L, the longest dimension). Animals were euthanized when the tumor size was over 2 cm diameters, tumor ulcerated, or became necrotic. For chimera treatment in normal mice, C57BL/6 mice were treated with miR-26a chimera (670 pmol/20 g) everyday for 3 days by intravenous injection. At day 2, 150 mg/kg 5-FU and/or 120 mg/kg carboplatin was injected together with the chimera. Peripheral bloods were collected at day 5 and day 10 after the 5-FU treatment. Complete blood counts were measured by Hemavet 950FS (Drew Scientific, Miami Lakes, Fla., USA).

N.N.O=C([O-])C1(C(=O)[O-])CCC1.[Pt+2] [carboplatin, reference compound]
red blood cells after carboplatin (day 10): reduction of red blood cells was also observed
hematopoiesis: WBC and platelet counts after carboplatin (single high dose of carboplatin, day 5, compared with vehicle): significant defects in hematopoiesis; also recorded: significantly reduced WBC and platelet counts

— patent US20200171068A1, “COMPOSITIONS COMPRISING APTAMERS AND NUCLEIC ACID PAYLOADS AND METHODS OF USING THE SAME” (Children's National Medical Center, priority 2017, published 2020)
